“Also recorded” adds a separate entry of the source.
What was measured:
T-type Ca^2+ current = T-type Ca^2+ current (Rattus norvegicus, UniProt O54898); experiment: Patch clamp recording of T-type Ca^2+ current in insulin-secreting (INS-1) cells; format: cell-based; conditions: drug diffusing system
Description: (§1) Cell Culture—INS-1 cells were cultured in RPMI 1640 medium containing 10% FBS, 25 U/ml penicillin, […] streptomycin and 50 μM mercaptoethanol in an atmosphere of 5% CO2 in air, at 37° C. for 2-5 days before recording.
(§2) β-cells Electrophysiological recording—The whole-cell recordings were carried out by the standard “giga-seal” patch clamp technique (Hamill et al.). The whole-cell recording pipettes were made of hemocapillaries (Warner), pulled by a two-stage puller (PC-10, Narishige International, New York, N.Y.), and heat polished with a microforge (MF200-1, World Precision Instruments, Sarasota, Fla.) before use. Pipette resistance was in the range of 2-5 MΩ in the internal solution. The recordings were performed at room temperature (22-25° C.). Currents were recorded using an EPC-9 patch-clamp amplifier (HEKA) and filtered at 2.9 kHz. Data were acquired with Pulse/PulseFit software (HEKA). Voltage-dependent currents were corrected for linear leak and residual capacitance by using an on-line P/n subtraction paradigm.
(§3) Solutions—The extracellular solution used in whole-cell Ca^2+ current recording contained (in mM): 10 CaCl21 110 tetraethylammonium-Cl (TEA-Cl), 10 CsCl, 10 N-2-hydroxyethylpiperazine-N′-2-ethanesulfonic acid (HEPES), 40 sucrose, 0.5 3,4-diaminopyridine, pH 7.3. The intracellular solution contained (in mM): 130 N-methyl-D-glucamine, 20 EGTA (free acid), 5 bis (2-aminophenoxy) ethane-N,N,N′,N′-tetraacetate (BAPTA), 10 HEPES, 6 MgCl2, 4 Ca(OH)2/pH was adjusted to 7.4 with methanesulfonate. 2 mM Mg-ATP was included in the pipette solution to minimize rundown of L-type Ca^2+ currents. For Perforated-patch recording, the extracellular solution contained (in mM): 26 Sucrose, 30 TEA-Cl, 10 HEPES, 5 KCl, 2 CaCl2, MgCl2, pH 7.3. The pipette solution contained (in mM): 65 CsOH, 65 CsMS, 20 sucrose, 10 HEPES, 10 MgCl2, 1 Ca(OH)2, pH 7.4.
(§4) The T-type Ca^2+ current was measured at −30 mV when the membrane was held at −90 mV and the L-type current was measured at +20 mV when the membrane was held at −40 mV. The currents were measured twice at each concentration of mibefradil with 2 min in between measurements.
(§5) A drug diffusing system was then used to test the reversibility of the antagonism of T- and L-type Ca^2+ currents by mibefradil. Small volumes (approximately 2 μl) of drugs were delivered in close proximity to the recording cell with a quartz capillary positioned by a micromanipulator. After administration, drugs diffused throughout the entire recording chamber containing 2 ml of bath solution. This drug diffusing system was used to test the reversibility of 30 μM of NiCl2 on the T-type Ca^2+ currents (FIG. 4).

NIT-1 cells = experiment: Spontaneous elevation of [Ca^2+]i in NIT-1 cells, Fluo-3 fluorescent imaging; format: cell-based, mouse; conditions: 10 μM, 3.3 mM glucose, 10 minute observation
Description: NIT-1 cells were cultured in medium containing 3.3 mM glucose and preloaded with 2.5 μM Fluo-3 μM. The numbers of spontaneous calcium elevated cells were counted and compared to the total cells being used for a 10 minute observation period. 10 μM NiCl2 inhibited 90% of spontaneous elevation of basal Ca^2+.

INS-1 cells [1] = experiment: Transient spontaneous calcium spikes in a single INS-1 cell, epi-fluorescence; format: cell-based, rat; conditions: 30 μM, bath solution without glucose
From the text: The cellular mechanism of the spontaneous elevation of intracellular Ca^2+ was investigated with the epi-fluorescence measurement method. […] The Role of T-type Ca^2+ channels in this spontaneous process was examined as well. […] These spontaneous calcium spikes may contribute to basal insulin secretion and control of basal [Ca^2+]i.

INS-1 cells [2] = experiment: Action potentials (excitability) of INS-1 cells; format: cell-based, rat; conditions: 100 μM
Description: Particularly, activation of T type Ca^2+ channels will increase the firing frequency of the depolarizing spikes mediated by opening L type Ca^2+ channels (FIG. 19A). Activation of T type Ca^2+ channel will also decrease the time of developing action potential elicited by up-threshold depolarizations (FIG. 19B).
To further establish that T type Ca^2+ current enhances β-cells excitability, 100 μM NiCl2 was administered to effectively block T type Ca^2+ channels.

INS-1 cells [3] = experiment: Glucose-induced insulin secretion in INS-1 cells; format: cell-based, rat; conditions: 11.1 mM glucose, variable concentrations of NiCl2
HIT-T15 = experiment: Glucose-induced insulin secretion in HIT-T15 cells; format: cell-based; conditions: 11.1 mM glucose, variable concentrations of NiCl2
LVA Ca^2+ current = experiment: Cytokine-induced LVA Ca^2+ current in primary cultured mouse islet cells; format: cell-based; conditions: 10 μM; IL-1β 25 U/ml and IFNγ 300 U/ml for 6 h; n=4
Description: The effects of chronic cytokine treatment on the voltage-sensitive Ca^2+ currents in primary cultured mouse islet cells was examined. After treatment with IL-1β (25 U/ml) and IFNγ (300 U/ml) for 6 h, an LVA Ca^2+ current was induced in these cells (FIG. 23A). This current was present in 48% of cytokine-treated mouse islet cells. No such current was observed when the cells were treated with either IL-1β or IFNγ alone. […] This LVA current has not been observed in non-treated cells. […] It has been reported that low concentration of NiCl2 selectively block LVA current, a profound […] in Ca^2+ current density was observed over the voltages between −20 and 20 mV.

mouse islet cells = experiment: Cytokine-induced increase in basal [Ca^2+]i in primary cultured mouse islet cells; format: cell-based; conditions: 10 μM; IL-1β 25 U/ml and IFNγ 300 U/ml for 6 h
From the text: LVA Ca^2+ channels are activated at low membrane potentials. This unique feature may allow then to regular [Ca^2+]i under nonstimulatory conditions. Indeed, basal [Ca^2+]i in cytokine-treated cells was approximately 3-fold higher than in nontreated cells (FIG. 24A).

β-TC3 cells [4] = experiment: Cytokine-induced DNA fragmentation in β-TC3 cells; format: cell-based, mouse; conditions: β-TC3 cells (n=2); same results in NIT-1 cells (n=3)
β-TC3 cells [5] = experiment: Cytokine-induced cell death in β-TC3 cells; format: cell-based, mouse; conditions: NiCl2 20 μM, nifedipine 10 μM; IL-1β 25 U/ml, IFNγ 100 U/ml, TNFα 100 U/ml
From the text: The function of LVA Ca^2+ channels in cytokine-mediated cell death in β-TC3 cells was then examined.

L-type Ca^2+ current = experiment: Patch clamp recording (whole-cell and perforated patch) of L-type Ca^2+ current in insulin-secreting (INS-1) cells; format: cell-based, rat; conditions: 1 μM in the pipette solution, whole-cell, 5 min after patch formation
Description: as §1, §2, §3, §4, §5
This hypothesis was tested by applying a very low dose of mibefradil on cells and recording the L-type Ca^2+ currents for a long time in the perforated patch-clamp configuration.

INS-1 cells [6] = experiment: Basal [Ca^2+]i in INS-1 cells by fura-2 fluorescence; format: cell-based, rat; conditions: 5 mM for 1 hour, followed by 3 hour recovery
Description: [Ca^2+]i was directly measured by the ratio of fluorescence excitations at Ca^2+-bound […], and then the ratio was converted to the calcium concentration. The bath solution contained […], 4 mM KCl, 2 mM CaCl2, and 2 mM MgCl2.
The effect of basal [Ca^2+]i on Ca^2+ influx was examined using the Ca^2+ dye indicator fura-2 and fluorescence measurements. Voltage-dependent Ca^2+ influx in a single cell was obtained by perfusion of an osmotically balanced solution containing 50 mM KCl into the recording chamber. […] The resting basal [Ca^2+]i in INS-1 cells was approximately 60-80 nM under the experimental conditions. [Ca^2+]i was determined by a standard curve obtained from a fura-2 calcium imaging kit (Molecule Probes). The empirical Kd obtained for calcium binding to fura-2 in the system was 296±20 nM. When basal [Ca^2+]i remains low, subsequent voltage stimulation with 50 KCl induces rapid and large calcium influx into the cell and these calcium changes are stereotyped upon repetitive stimulation when basal calcium is restored (FIG. 10). In this experiment, following the 50 KCl depolarization, the cell was repolarized by perfusion of the original 5 mM KCl solution. After repolarization, basal [Ca^2+]i slowly reset and then a second 50 KCl depolarization induced a similar [Ca^2+]i transient. When the basal calcium is not allowed to reset, a defect in the second voltage induced calcium transient occurs (FIG. 11). […] Therefore effectors of basal [Ca^2+]i will have important impact on the amount of calcium that can enter the cell.

T-type Ca^2+ current, sequence (O54898 whole entry): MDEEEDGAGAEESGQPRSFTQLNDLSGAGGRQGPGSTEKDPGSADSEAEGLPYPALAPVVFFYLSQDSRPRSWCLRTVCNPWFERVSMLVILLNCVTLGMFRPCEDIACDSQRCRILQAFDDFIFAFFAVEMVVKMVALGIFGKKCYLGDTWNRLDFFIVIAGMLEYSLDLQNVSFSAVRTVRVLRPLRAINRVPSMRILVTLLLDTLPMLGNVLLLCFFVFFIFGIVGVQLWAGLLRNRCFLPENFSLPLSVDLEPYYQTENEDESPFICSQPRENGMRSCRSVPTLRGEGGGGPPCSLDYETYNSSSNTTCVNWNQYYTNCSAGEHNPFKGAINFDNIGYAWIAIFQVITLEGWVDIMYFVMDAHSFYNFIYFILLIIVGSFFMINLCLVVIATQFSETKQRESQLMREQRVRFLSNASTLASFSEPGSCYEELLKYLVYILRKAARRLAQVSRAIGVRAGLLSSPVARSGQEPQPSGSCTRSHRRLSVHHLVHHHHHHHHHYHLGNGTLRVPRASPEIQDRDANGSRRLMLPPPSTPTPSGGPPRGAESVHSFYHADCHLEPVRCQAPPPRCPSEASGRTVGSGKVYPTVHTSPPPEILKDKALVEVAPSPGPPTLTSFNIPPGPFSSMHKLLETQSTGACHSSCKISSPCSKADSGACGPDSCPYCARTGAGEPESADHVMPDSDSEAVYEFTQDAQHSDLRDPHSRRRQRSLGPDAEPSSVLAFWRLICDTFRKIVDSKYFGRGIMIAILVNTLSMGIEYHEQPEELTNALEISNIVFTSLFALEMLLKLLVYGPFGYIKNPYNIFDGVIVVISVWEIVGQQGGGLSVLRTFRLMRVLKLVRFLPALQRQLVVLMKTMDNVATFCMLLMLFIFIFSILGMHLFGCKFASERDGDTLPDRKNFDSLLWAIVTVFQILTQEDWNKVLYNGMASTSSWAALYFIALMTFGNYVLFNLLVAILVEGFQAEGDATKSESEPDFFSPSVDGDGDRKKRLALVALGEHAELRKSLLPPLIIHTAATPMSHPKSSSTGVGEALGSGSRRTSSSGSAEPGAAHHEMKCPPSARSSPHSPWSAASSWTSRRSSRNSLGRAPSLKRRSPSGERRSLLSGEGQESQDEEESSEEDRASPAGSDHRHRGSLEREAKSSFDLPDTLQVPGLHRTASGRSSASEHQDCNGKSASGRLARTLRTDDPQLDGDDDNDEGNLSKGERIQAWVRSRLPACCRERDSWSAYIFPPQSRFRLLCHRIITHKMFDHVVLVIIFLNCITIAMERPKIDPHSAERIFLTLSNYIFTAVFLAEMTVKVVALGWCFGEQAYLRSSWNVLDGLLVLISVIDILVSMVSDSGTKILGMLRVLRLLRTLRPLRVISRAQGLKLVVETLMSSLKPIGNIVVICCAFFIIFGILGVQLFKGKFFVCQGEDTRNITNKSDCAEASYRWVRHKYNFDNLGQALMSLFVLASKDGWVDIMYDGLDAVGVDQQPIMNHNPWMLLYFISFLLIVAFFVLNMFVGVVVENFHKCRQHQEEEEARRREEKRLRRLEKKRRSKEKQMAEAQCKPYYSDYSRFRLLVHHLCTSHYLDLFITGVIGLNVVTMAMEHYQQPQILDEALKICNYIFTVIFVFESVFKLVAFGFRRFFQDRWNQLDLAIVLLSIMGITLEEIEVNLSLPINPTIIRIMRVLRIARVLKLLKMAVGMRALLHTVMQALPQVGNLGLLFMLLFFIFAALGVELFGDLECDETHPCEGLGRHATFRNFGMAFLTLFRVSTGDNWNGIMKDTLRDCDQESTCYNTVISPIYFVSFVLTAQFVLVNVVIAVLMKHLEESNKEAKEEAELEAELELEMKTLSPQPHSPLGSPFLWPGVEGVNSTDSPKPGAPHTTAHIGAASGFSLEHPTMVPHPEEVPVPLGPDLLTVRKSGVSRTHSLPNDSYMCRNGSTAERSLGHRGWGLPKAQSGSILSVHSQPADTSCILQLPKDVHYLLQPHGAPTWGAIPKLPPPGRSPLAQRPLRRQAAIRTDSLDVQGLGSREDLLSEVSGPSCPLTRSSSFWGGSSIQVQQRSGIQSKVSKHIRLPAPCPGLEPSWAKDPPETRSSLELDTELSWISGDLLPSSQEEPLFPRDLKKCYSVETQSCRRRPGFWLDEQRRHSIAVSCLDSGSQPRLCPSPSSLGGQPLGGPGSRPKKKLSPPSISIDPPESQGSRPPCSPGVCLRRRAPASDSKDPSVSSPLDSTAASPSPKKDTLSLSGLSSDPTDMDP

[Cl][Ni][Cl] [NiCl2]
amplitude of T-type current after drug delivery, % of initial level (T-type Ca^2+ current; about 2 μl of 30 μM delivered near the cell, rapid reduction): 40% | amplitude of T-type current after recovery, % of initial level (T-type Ca^2+ current; about 2 μl of 30 μM, within 3 minutes): 80% | reversibility of the inhibition of T-type Ca^2+ current (T-type Ca^2+ current; small volume delivered near the cell): reversibly block T type Ca^2+ current | inhibition of spontaneous elevation of basal Ca^2+ (NIT-1 cells): 90% | frequency of spontaneous calcium spikes (INS-1 cells [1]): reduced the frequency of spontaneous calcium spikes immediately; also recorded: reduced the frequency of transient spontaneous elevation of [Ca^2+]i | onset and number of action potentials (INS-1 cells [2]): a delay in the onset of an action potential and a decrease in number of action potentials | insulin secretion (INS-1 cells [3]): reduced insulin secretion in a dose-dependent manner | insulin secretion (HIT-T15): not affected | block of cytokine-induced LVA Ca^2+ current (LVA Ca^2+ current): blocked | effect on cytokine-induced increase in basal [Ca^2+]i (mouse islet cells): blocked; also recorded: prevented the increase in [Ca^2+]i | effect on cytokine-induced DNA fragmentation (β-TC3 cells [4]): prevented cytokine-induced DNA fragmentation | effect on cytokine-induced cell death (β-TC3 cells [5]): effectively reduced the β-cells killing potency of cytokines; also recorded: significantly reduced cell death

CC(C)[C@H]1c2ccc(F)cc2CC[C@]1(O)CCN(C)CCCc1nc2ccccc2[nH]1.Cl [dm-mibefradil, (1S,2S)-2-[2-[[3-(2-Benzimidazolyl)propyl]methylamino]ethyl]-6-fluoro-1,2,3,4-tetrahydro-1-isopropyl-2-napthyl hydroxy hydrochloride]
effect on L-type Ca^2+ current from inside of cells (L-type Ca^2+ current): specifically blocked

CN(N=O)C(=O)N[C@H]1C(O)O[C@H](CO)[C@@H](O)[C@@H]1O (mixture of isomers) [streptozotocin]
calcium influx on stimulation by 50 KCl (INS-1 cells [6]): reduced calcium influx compared to control cells | change in basal calcium (INS-1 cells [6]): two-fold increase in basal calcium

N=C(N)NC(=O)c1nc(Cl)c(N)nc1N [amiloride]
effect on cytokine-induced DNA fragmentation (β-TC3 cells [4]): prevented cytokine-induced DNA fragmentation

From patent US20030125269A1, “T-TYPE CALCIUM CHANNEL” (priority 1998, published 2003)
